Results as given in patent US12637464B2, “Tetracyclic compounds for treating brain disorders” (The Regents of the University of California, priority 2021, dated 2026).

Tests used:
5-HT2 receptors = assay: Traditional GPCR binding and functional assays (radioligand binding, IP1, β-arrestin); assay type: cell-based, human; conditions: FIG. 3B
Procedure: Radioligand Binding Assays (5-HT2AR and 5-HT2CR). The 5-HT2AR and 5-HT2CR competitive radioligand binding assays were performed at Epics Therapeutics S.A. (Belgium, FAST-0505B) using conventional methods. Briefly, competition binding was performed in duplicate in the wells of a 96-well plate (Master Block, Greiner, 786201) containing binding buffer, membrane extracts, radiotracer [^3H]-DOI and test compound. Nonspecific binding was determined by co-incubation with 200-fold excess of cold competitor DOI. The samples were incubated in a final volume of 0.1 mL at a temperature and for a duration optimized for either the 5-HT2AR or 5-HT2CR and then filtered over filter plates. […] The plates were incubated for 15 min on an orbital shaker and then counted with a TopCount™ for 1 min/well. […]
IP1 Assay (5-HT2AR and 5-HT2CR). […] After addition of the lysis buffer containing IP1-d2 and anti-IP1 cryptate detection reagents, plates were incubated for 1 h at room temperature and fluorescence ratios were measured according to the manufacturer's specifications using the HTRF kit. […]
β-Arrestin Activation (PathHunter®). […] PK and EA are then expressed as fusion proteins in U2OS cells, with PK fused to the GPCR of interest, and EA fused to β-Arrestin. […]
Serotonin 5-HT2A In Vitro Radioligand Binding Competition Assay. […] Nonspecific binding is determined by co-incubation with 200-fold excess of cold competitor. […]

C57BL/6J mice = assay: Head-twitch response (HTR) assay; assay type: in vivo, mouse
Procedure: Head-Twitch Response Assay. The HTR assay was performed using equal numbers of male and female C57BL/6J mice. The mice were obtained from The Jackson Laboratory (Sacramento, CA) and were approximately 8-12 weeks old at the time of the experiments. After compound administration, animals were placed into an empty arena (40 cm×40 cm) and filmed for 20 min. The arena was cleaned with 70% ethanol between trials. Animals were given a one-week washout period before being tested again. Animals were tested a maximum of 4 times. All drug treatments were randomized and no animal received the same drug and dose twice. For the blocking experiments, animals were administered (+)-JRT (1 mg/kg) or vehicle (saline) via IP injection and placed in an empty cage for 15 min. Animals were then administered LSD (0.2 mg/kg, IP), placed in the test arena, and filmed for 20 min. Videos were scored later by two blinded observers, and the results were averaged (Pearson correlation coefficient>0.9).

[1] = system: dendritic spine density in the PFC; assay: In vivo spinogenesis (electron microscopy); parameters: species or system C57BL/6J mice; conditions: single dose 1 mg/kg, 24 h after administration, 3 animals per group
Procedure: In Vivo Spinogenesis. Female C57BL/6J mice (Jackson Laboratory, Sacramento, C.A.) were treated with VEH (saline) or (+)-JRT (n=3/group). After 24 h, the animals were sacrificed via transcardial perfusion with oxygenated Ringer's solution followed by a fixative (2% paraformaldehyde, 2.5% glutaraldehyde, 3 mM calcium chloride in 0.1 M cacodylate buffer). Brains were carefully removed from the skull and post-fixed overnight in the same fixative. Brains were then rinsed with PBS and 100 μm coronal sections spanning the prefrontal cortex were collected using a vibrating microtome (Leica). Regions of the infralimbic cortex were microdissected according to the Allen brain atlas and processed further for electron microscopy. Briefly, samples were stained with buffered 1.5% reduced osmium tetroxide for 45 minutes, rinsed thoroughly, further stained with 1% aqueous uranyl acetate overnight at 4° C., dehydrated and embedded in Eponate 12 epoxy resin. A blockface that spanned from the medial cortical surface to the corpus collosum was trimmed and 150-250 serial ultrathin sections (55 nm) were collected onto silicon chips using diamond knives (Diatome) on an ultramicrotome (Leica). Serial sections on silicon chips were loaded into the scanning electron microscope (SEM; Zeiss Sigma VP) for imaging. […] Dendritic spine densities (spines/micron) were calculated for each volume.

With `CCN(CC)C(=O)[C@@H]1C=C2c3cccc4ccn(c34)C[C@H]2N(C)C1` [(+)-JRT] the “agonism of 5-HT2 receptors” value (5-HT2 receptors) was “potent agonist of 5-HT2 receptors”, the “HTR induced by LSD (antipsychotic properties)” value (C57BL/6J mice; (+)-JRT 1 mg/kg pretreatment, LSD 0.2 mg/kg) was “antagonizing a HTR induced by LSD” and the “hallucinogenic potential (mouse head-twitch response, agonist mode)” value (C57BL/6J mice; male and female mice, agonist mode) was “low hallucinogenic potential”. For the same compound, the “dendritic spine density in the PFC” value [1] was “increases dendritic spine density”.
